Experimental data reported in patent US20260285850A1, “SUBSTITUTED OXAZOLIDINONES AND IMIDAZOLINONES AS HERBICIDES” (FMC CORPORATION, priority 2023, published 2026).

Tests used:
Assay type in all cases: in vivo
rice (Oryza sativa) = experiment: Test B flooded paddy test, visual plant response rating 0-100; settings: 250 g ai/ha, Flood, applied to paddy water, evaluated after 13 days
In short: (§1)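 Compounds applied to standing paddy water (3 cm above soil, maintained for the test duration) on 2-leaf-stage plants; visual rating vs controls at 13 days, greenhouse.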

[1] = system: barnyardgrass (Echinochloa crusgalli); experiment: as above; settings: 250 g ai/ha, Flood, applied to paddy water, evaluated after 13 days
In short: as §1

[2] = system: sedge, umbrella (small-flower umbrella sedge, Cyperus difformis); experiment: as above; settings: 250 g ai/ha, Flood, applied to paddy water, evaluated after 13 days
In short: as §1

[3] = system: ducksalad (Heteranthera limosa); experiment: as above; settings: 250 g ai/ha, Flood, applied to paddy water, evaluated after 13 days
In short: as §1

[4] = system: wheat (Triticum aestivum); experiment: Test A preemergence soil spray, visual injury rating 0-100; settings: 0 to 100 scale, 10 days
In short: (§2)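 Seeds sown in loam-sand blend got a preemergence directed soil spray, or emerged plants (2-10 cm, one- to two-leaf) got a postemergence spray, of compound in non-phytotoxic solvent with surfactant. After 10 days in greenhouse, injury rated visually versus untreated controls on a 0 (no effect) to 100 (complete control) scale.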

[5] = system: green foxtail (Setaria viridis); experiment: as above; settings: 0 to 100 scale, 10 days
In short: as §2

soybean (Glycine max) [6] = experiment: as above; settings: 0 to 100 scale, 10 days
In short: as §2

[7] = system: barnyardgrass (Echinochloa crus-galli); experiment: as above; settings: 0 to 100 scale, 10 days
In short: as §2

[8] = system: blackgrass (Alopecurus myosuroides); experiment: as above; settings: 0 to 100 scale, 10 days
In short: as §2

[9] = system: oat, wild (wild oat, Avena fatua); experiment: as above; settings: 0 to 100 scale, 10 days
In short: as §2

corn (Zea mays) [10] = experiment: as above; settings: 0 to 100 scale, 10 days
In short: as §2

kochia (Bassia scoparia) [11] = experiment: as above; settings: 0 to 100 scale, 10 days
In short: as §2

[12] = system: ryegrass, Italian (italian ryegrass, Lolium multiflorum); experiment: as above; settings: 0 to 100 scale, 10 days
In short: as §2

[13] = system: ragweed (common ragweed, Ambrosia artemisiifolia); experiment: as above; settings: 0 to 100 scale, 10 days
In short: as §2

[14] = system: palmer (palmer amaranth, palmer pigweed, Amaranthus palmeri); experiment: as above; settings: 0 to 100 scale, 10 days; for Pigweed, Palmer plant response rating: 8 g ai/ha; for Amaranth, Palmer (Pigweed, Palmer) plant response rating: 31 g ai/ha
In short: as §2

[15] = system: wheat (Triticum aestivum); experiment: Test A postemergence application, visual injury rating 0-100; settings: Postemergence
In short: as §2

[16] = system: green foxtail (Setaria viridis); experiment: as above; settings: Postemergence
In short: as §2

[17] = system: horseweed (Erigeron canadensis); experiment: as above; settings: Postemergence
In short: as §2

soybean (Glycine max) [18] = experiment: as above; settings: Postemergence
In short: as §2

[19] = system: barnyardgrass (Echinochloa crus-galli); experiment: as above; settings: Postemergence
In short: as §2

[20] = system: blackgrass (Alopecurus myosuroides); experiment: as above; settings: Postemergence
In short: as §2

[21] = system: oat, wild (wild oat, Avena fatua); experiment: as above; settings: Postemergence
In short: as §2

corn (Zea mays) [22] = experiment: as above; settings: Postemergence
In short: as §2

[23] = system: galium (catchweed bedstraw, Galium aparine); experiment: as above; settings: Postemergence
In short: as §2

kochia (Bassia scoparia) [24] = experiment: as above; settings: Postemergence
In short: as §2

[25] = system: ryegrass, Italian (italian ryegrass, Lolium multiflorum); experiment: as above; settings: Postemergence
In short: as §2

[26] = system: ragweed (common ragweed, Ambrosia artemisiifolia); experiment: as above; settings: Postemergence
In short: as §2

[27] = system: palmer (palmer amaranth, palmer pigweed, Amaranthus palmeri); experiment: as above; settings: Postemergence; for Pigweed, Palmer plant response rating (0 to 100 scale): 8 g ai/ha, 10 days, 0 is no effect, 100 is complete control; for Amaranth, Palmer / Pigweed, Palmer plant response rating (0 to 100 scale): 31 g ai/ha, greenhouse 10 days, 0 no effect, 100 complete control
In short: as §2

[28] = 8 g ai/ha, 10 days, 0 is no effect, 100 is complete control
[29] = 31 g ai/ha, greenhouse 10 days, 0 no effect, 100 complete control

In the case of `CC1(C(=O)NC2C=CC(C(=O)NS(=O)(=O)C3CC3)C2)CN(c2cc(F)cc(F)c2)C(=O)O1` (centres unmarked) [Compound 87], the “Plant response rating, Rice (0 to 100 scale, 0 is no effect and 100 is complete control)” value (rice (Oryza sativa)) is reported as 0, the “Plant response rating, Barnyardgrass (0 to 100 scale, 0 is no effect and 100 is complete control)” value [1] is reported as 0 and the “Plant response rating, Sedge, Umbrella (0 to 100 scale, 0 is no effect and 100 is complete control)” value [2] is reported as 0. For the same molecule, the “Plant response rating, Ducksalad (0 to 100 scale, 0 is no effect and 100 is complete control)” value [3] was 0, the “Wheat plant response rating” value ([4]; 8 g ai/ha) was 0 and the “Wheat plant response rating” value ([4]; 31 g ai/ha) was 20. The “Foxtail, Green plant response rating” value ([5]; 8 g ai/ha) was 30, the “Foxtail, Green plant response rating” value ([5]; 31 g ai/ha) was 20 and the “Soybean plant response rating” value (soybean (Glycine max) [6]; 8 g ai/ha) was 0. For the same molecule, the “Soybean plant response rating” value (soybean (Glycine max) [6]; 31 g ai/ha) was 0, the “Barnyardgrass plant response rating” value ([7]; 8 g ai/ha) was 0 and the “Barnyardgrass plant response rating” value ([7]; 31 g ai/ha) was 90. The “Blackgrass plant response rating” value ([8]; 8 g ai/ha) was 10, the “Blackgrass plant response rating” value ([8]; 31 g ai/ha) was 20 and the “Oat, Wild plant response rating” value ([9]; 8 g ai/ha) was 0. For the same molecule, the “Oat, Wild plant response rating” value ([9]; 31 g ai/ha) was 0, the “Corn plant response rating” value (corn (Zea mays) [10]; 8 g ai/ha) was 0 and the “Corn plant response rating” value (corn (Zea mays) [10]; 31 g ai/ha) was 0. The “Kochia plant response rating” value (kochia (Bassia scoparia) [11]; 8 g ai/ha) was 0, the “Kochia plant response rating” value (kochia (Bassia scoparia) [11]; 31 g ai/ha) was 10 and the “Ryegrass, Italian plant response rating” value ([12]; 8 g ai/ha) was 0. The “Ryegrass, Italian plant response rating” value ([12]; 31 g ai/ha) was 30, the “Ragweed plant response rating” value ([13]; 8 g ai/ha) was 10 and the “Ragweed plant response rating” value ([13]; 31 g ai/ha) was 10. For the same molecule, the “Pigweed, Palmer plant response rating” value [14] was 10, the “Amaranth, Palmer (Pigweed, Palmer) plant response rating” value [14] was 90 and the “Wheat plant response rating (0 to 100 scale)” value [15, 28] was 0. The “Wheat plant response rating (0 to 100 scale)” value [15, 29] was 100, the “Foxtail, Green plant response rating (0 to 100 scale)” value (from here on “Foxtail … (0 to 100 scale)”) [16, 28] was 0 and the “Foxtail … (0 to 100 scale)” value [16, 29] was 40. The “Horseweed plant response rating (0 to 100 scale)” value (“Horseweed plant response rating” for short) [17, 28] was 20, the “Horseweed plant response rating” value [17, 29] was 30 and the “Soybean plant response rating (0 to 100 scale)” value (soybean (Glycine max) [18]; [28]) was 20. For the same molecule, the “Soybean plant response rating (0 to 100 scale)” value (soybean (Glycine max) [18]; [29]) was 50, the “Barnyardgrass plant response rating (0 to 100 scale)” value [19, 28] was 50 and the “Barnyardgrass plant response rating (0 to 100 scale)” value [19, 29] was 100. The “Blackgrass plant response rating (0 to 100 scale)” value [20, 28] was 0, the “Blackgrass plant response rating (0 to 100 scale)” value [20, 29] was 30 and the “Oat, Wild plant response rating (0 to 100 scale)” value (“Oat … (0 to 100 scale)” below) [21, 28] was 20. For the same molecule, the “Oat … (0 to 100 scale)” value [21, 29] was 90, the “Corn plant response rating (0 to 100 scale)” value (corn (Zea mays) [22]; [28]) was 0 and the “Corn plant response rating (0 to 100 scale)” value (corn (Zea mays) [22]; [29]) was 80. For the same molecule, the “Galium plant response rating (0 to 100 scale)” value (shortened to “Galium plant response rating”) [23, 28] was 50, the “Galium plant response rating” value [23, 29] was 70 and the “Kochia plant response rating (0 to 100 scale)” value (kochia (Bassia scoparia) [24]; [28]) was 30. For the same molecule, the “Kochia plant response rating (0 to 100 scale)” value (kochia (Bassia scoparia) [24]; [29]) was 80, the “Ryegrass, Italian plant response rating (0 to 100 scale)” value (from here on “Ryegrass … (0 to 100 scale)”) [25, 28] was 20 and the “Ryegrass … (0 to 100 scale)” value [25, 29] was 50. The “Ragweed plant response rating (0 to 100 scale)” value [26, 28] was 10, the “Ragweed plant response rating (0 to 100 scale)” value [26, 29] was 50 and the “Pigweed, Palmer plant response rating (0 to 100 scale)” value [27] was 30. The “Amaranth, Palmer / Pigweed, Palmer plant response rating (0 to 100 scale)” value [27] was 70.

With `CC1(C(=O)NC2C=CC(C(=O)NS(=O)(=O)c3ccccc3)C2)CN(c2cc(F)cc(F)c2)C(=O)O1` (centres unmarked) [Compound 88] the “Plant response rating, Rice (0 to 100 scale, 0 is no effect and 100 is complete control)” value (rice (Oryza sativa)) was 25, the “Plant response rating, Barnyardgrass (0 to 100 scale, 0 is no effect and 100 is complete control)” value [1] was 15 and the “Plant response rating, Sedge, Umbrella (0 to 100 scale, 0 is no effect and 100 is complete control)” value [2] was 80. The “Plant response rating, Ducksalad (0 to 100 scale, 0 is no effect and 100 is complete control)” value [3] was 70, the “Wheat plant response rating” value ([4]; 8 g ai/ha) was 0 and the “Wheat plant response rating” value ([4]; 31 g ai/ha) was 10. The “Foxtail, Green plant response rating” value ([5]; 8 g ai/ha) was 20, the “Foxtail, Green plant response rating” value ([5]; 31 g ai/ha) was 30 and the “Soybean plant response rating” value (soybean (Glycine max) [6]; 8 g ai/ha) was 0. The “Soybean plant response rating” value (soybean (Glycine max) [6]; 31 g ai/ha) was 0, the “Barnyardgrass plant response rating” value ([7]; 8 g ai/ha) was 10 and the “Barnyardgrass plant response rating” value ([7]; 31 g ai/ha) was 40. For the same molecule, the “Blackgrass plant response rating” value ([8]; 8 g ai/ha) was 0, the “Blackgrass plant response rating” value ([8]; 31 g ai/ha) was 30 and the “Oat, Wild plant response rating” value ([9]; 8 g ai/ha) was 0. The “Oat, Wild plant response rating” value ([9]; 31 g ai/ha) was 0, the “Corn plant response rating” value (corn (Zea mays) [10]; 8 g ai/ha) was 0 and the “Corn plant response rating” value (corn (Zea mays) [10]; 31 g ai/ha) was 0. The “Kochia plant response rating” value (kochia (Bassia scoparia) [11]; 8 g ai/ha) was 0, the “Kochia plant response rating” value (kochia (Bassia scoparia) [11]; 31 g ai/ha) was 60 and the “Ryegrass, Italian plant response rating” value ([12]; 8 g ai/ha) was 10. The “Ryegrass, Italian plant response rating” value ([12]; 31 g ai/ha) was 50, the “Ragweed plant response rating” value ([13]; 8 g ai/ha) was 0 and the “Ragweed plant response rating” value ([13]; 31 g ai/ha) was 40. The “Pigweed, Palmer plant response rating” value [14] was 50, the “Amaranth, Palmer (Pigweed, Palmer) plant response rating” value [14] was 80 and the “Wheat plant response rating (0 to 100 scale)” value [15, 28] was 20. The “Wheat plant response rating (0 to 100 scale)” value [15, 29] was 40, the “Foxtail … (0 to 100 scale)” value [16, 28] was 0 and the “Foxtail … (0 to 100 scale)” value [16, 29] was 50. For the same molecule, the “Horseweed plant response rating” value [17, 28] was 0, the “Horseweed plant response rating” value [17, 29] was 50 and the “Soybean plant response rating (0 to 100 scale)” value (soybean (Glycine max) [18]; [28]) was 0. The “Soybean plant response rating (0 to 100 scale)” value (soybean (Glycine max) [18]; [29]) was 50, the “Barnyardgrass plant response rating (0 to 100 scale)” value [19, 28] was 10 and the “Barnyardgrass plant response rating (0 to 100 scale)” value [19, 29] was 100. The “Blackgrass plant response rating (0 to 100 scale)” value [20, 28] was 0, the “Blackgrass plant response rating (0 to 100 scale)” value [20, 29] was 50 and the “Oat … (0 to 100 scale)” value [21, 28] was 20. For the same molecule, the “Oat … (0 to 100 scale)” value [21, 29] was 90, the “Corn plant response rating (0 to 100 scale)” value (corn (Zea mays) [22]; [28]) was 40 and the “Corn plant response rating (0 to 100 scale)” value (corn (Zea mays) [22]; [29]) was 90. The “Galium plant response rating” value [23, 28] was 30, the “Galium plant response rating” value [23, 29] was 70 and the “Kochia plant response rating (0 to 100 scale)” value (kochia (Bassia scoparia) [24]; [28]) was 30. For the same molecule, the “Kochia plant response rating (0 to 100 scale)” value (kochia (Bassia scoparia) [24]; [29]) was 80, the “Ryegrass … (0 to 100 scale)” value [25, 28] was 0 and the “Ryegrass … (0 to 100 scale)” value [25, 29] was 50. For the same molecule, the “Ragweed plant response rating (0 to 100 scale)” value [26, 28] was 50, the “Ragweed plant response rating (0 to 100 scale)” value [26, 29] was 60 and the “Pigweed, Palmer plant response rating (0 to 100 scale)” value [27] was 40. For the same molecule, the “Amaranth, Palmer / Pigweed, Palmer plant response rating (0 to 100 scale)” value [27] was 90.
